EC50 data for 17 molecules are collected here from patent US20260216219A1, “MODULATOR FOR PROMOTING BINDING OF BUTYROPHILIN 3A1/2A1” (priority 2023, published 2026).

The test system of one experiment is MIAPaCa/FG2 cells. The experiment is described as follows: EC50 assay of small molecule activated γδ T cells to kill tumor cells (10-fold dilution, 10^-12-10^-5 M). The format is cell-based. The conditions noted are these: Homo sapiens, MIA PaCa-2, 20 h, read-out: MIApaca killing (nM). How it is done:
γδT cells and MIAPaCa/FG2 tumor cell lines were expanded and cultured in vitro. The MIAPaCa/FG2 cells were digested, and the cells were counted and resuspended in DMEM complete medium, the density of the cell suspension was adjusted and added into a 96-well plate at 5×10^3 cells/50 μL/well for overnight incubation. On the next day, the test compound and the control compound were diluted at a 10-fold ratio with γδT complete medium. 50 μL of diluted compound was transferred to the corresponding wells which had been plated with tumor cells, and the actual detection concentration was in the range of 10^−12-10^−5 M. γδT cells were resuspended in γδT complete medium, and the density of the cell suspension was adjusted according to the effector-target ratio of E:T=2:1, and then the cells were added to the corresponding wells at 1×10^4 cells/50 μL/well. After co-culture at 37° C., 5% CO2 for 20 hours, the cells were centrifuged. The supernatant was removed, and 50 μL of cell lysate containing luciferin substrate was added to each well. After standing for 18 minutes in the dark, the signal of chemiluminescence was detected. The EC50 value was calculated by four-parameter fitting, with the corresponding signal value of the well with only tumor cells as the minimum killing value, and the corresponding signal value of the well without tumor cells as the maximum killing value. The killing data of MIAPaCa/FG2 cells are as follows: […]
Turning to `C/C(=C\CCP(=O)(N[C@@H](C)C(=O)OC(C)C)Oc1ccccc1)CO` (stereo partly drawn) [Control compound 1, Isopropyl (((E)-5-hydroxy-4-methylpent-3-en-1-yl)(phenoxy)phosphoryl)-L-alaninate, reference compound], the EC50 was 0.57 nM.

Still in this experiment, the particulars now being: Homo sapiens, MIA PaCa-2; γδT cells co-cultured with MIAPaCa/FG2 cells, E:T=2:1, 20 hours; compound diluted 10-fold, 10^-12-10^-5 M; chemiluminescence; read-out: MIApaca killing.
With `CC(C)OC(=O)[C@H](C)NP(=O)(OC/C=C(/CO)C(F)(F)F)Oc1ccc(C[C@H](NC(=O)OCc2ccccc2)C(=O)OC2CCCC2)cc1` (stereo partly drawn) [Compound 6], the EC50 is 11.4 nM. On to `CC(C)OC(=O)[C@H](Cc1ccc(OP(=O)(N[C@@H](C)C(=O)OC2CCCC2)OC/C=C(/CO)C(F)(F)F)cc1)NC(=O)OCc1ccccc1` (stereo partly drawn) [Compound 7], for which the EC50 is 9.6 nM.

Still in this experiment, the particulars now being: read-out: MIApaca killing; γδT cells co-cultured with MIAPaCa/FG2 cells, E:T=2:1, 20 hours; compound diluted 10-fold, 10^-12-10^-5 M; chemiluminescence.
Consider `C/C(=C\CCP(=O)(N[C@@H](C)C(=O)OC(C)C)Oc1ccc(C[C@H](NC(=O)OCc2ccccc2)C(=O)OC2CCCC2)cc1)CO` (stereo partly drawn) [Compound 1, Cyclopentyl (2S)-2-(benzyloxycarbonylamino)-3-[4-[[(E)-5-hydroxy-4-methyl-pent-3-enyl]-[[(1S)-2-isopropoxy-1-methyl-2-oxo-ethyl]amino]phosphoryl]oxyphenyl]propionate], for which the EC50 came to 0.1 nM. On to `C/C(=C\CCP(=O)(N[C@@H](C)C(=O)OC(C)C)Oc1ccc(C[C@H](NC(=O)OCc2ccccc2)C(=O)O[C@H]2CCOC2)cc1)CO` (stereo partly drawn) [Compound 2, (S)-tetrahydrofuran-3-yl (2S)-2-(benzyloxycarbonylamino)-3-[4-[[(E)-5-hydroxy-4-methyl-pent-3-enyl]-[[(1S)-2-isopropoxy-1-methyl-2-oxo-ethyl]amino]phosphoryl]oxyphenyl]propionate], for which the EC50 came out at 0.12 nM. Regarding `C/C(=C\CCP(=O)(N[C@@H](C)C(=O)OC(C)C)Oc1ccc(C[C@H](NC(=O)OCc2ccccc2)C(=O)O[C@@H]2CCOC2)cc1)CO` (stereo partly drawn) [Compound 3, (R)-tetrahydrofuran-3-yl (2S)-2-(benzyloxycarbonylamino)-3-[4-[[(E)-5-hydroxy-4-methyl-pent-3-enyl]-[[(1S)-2-isopropoxy-1-methyl-2-oxo-ethyl]amino]phosphoryl]oxyphenyl]propionate], the EC50 is 0.17 nM. As to `C/C(=C\CCP(=O)(N[C@@H](C)C(=O)OC1CCCC1)Oc1ccc(C[C@H](NC(=O)OCc2ccccc2)C(=O)OC(C)C)cc1)CO` (stereo partly drawn) [Compound 4, Isopropyl (2S)-2-(benzyloxycarbonylamino)-3-[4-[[(E)-5-hydroxy-4-methyl-pent-3-enyl]-[[(1S)-2-isocyclopentyloxy-1-methyl-2-oxo-ethyl]amino]phosphoryl]oxyphenyl]propionate], the EC50 amounted to 0.07 nM. Still for that read-out and setting: then `C/C(=C\CCP(=O)(N[C@@H](C)C(=O)OC(C)C)Oc1ccc(C[C@H](NC(=O)CCc2ccccc2)C(=O)OC2CCCC2)cc1)CO` (stereo partly drawn) [Compound 5, Cyclopentyl (2S)-2-(3-phenylpropionylamino)-3-[4-[[(E)-5-hydroxy-4-methyl-pent-3-enyl]-[[(1S)-2-isopropoxy-1-methyl-2-oxo-ethyl]amino]phosphoryl]oxyphenyl]propionate], with 0.06 nM.

The experiment is the same for the next values; noted with them: γδT cells co-cultured with MIAPaCa/FG2 cells, E:T=2:1, 20 hours; compound diluted 10-fold, 10^-12-10^-5 M; chemiluminescence; read-out: MIApaca killing.
For the molecule `C/C(=C\COP(=O)(O)OP(=O)(O)O)CO` [HMBPP control, reference compound], the EC50 was determined as 2.1 nM.

The next experiment deals with MIAPaCa/FG2 cells. Briefly: EC50 assay of small molecule activated γδ T cells to kill tumor cells (3-fold dilution, 0.05-100 nM). It counts as cell-based. The conditions noted are these: T-cell, γδT cells co-cultured with MIAPaCa/FG2 cells, E:T=2:1, 20 hours, compound diluted 3-fold, chemiluminescence, read-out: killing data of MIAPaCa/FG2 cells (EC50). On the procedure: γδT cells and MIAPaCa/FG2 tumor cell lines were expanded and cultured in vitro. MIAPaCa/FG2 cells were digested, and the cells were counted and resuspended in DMEM complete medium, the density of the cell suspension was adjusted and added into a 96-well plate at 5×10^3 cells/50 μL/well for overnight incubation. On the next day, the test compound and the control compound were diluted at a 3-fold ratio with DMSO, and 4 μL of the diluted compound was added to 96 μL of culture medium for 25-fold dilution. 5 μL of 25-fold diluted compound was transferred to the corresponding well which had been plated with tumor cells, and the actual detection concentration was in the range of 0.05-100 nM. γδT cells were resuspended in γδT complete medium, and the density of the cell suspension was adjusted according to the effector-target ratio of E:T=2:1, and then the cell was added to the corresponding well at 1×10^4 cells/100 μL/well. After co-culture at 37° C., 5% CO2 for 20 hours, the cells were centrifuged. The supernatant was removed, and 50 μL of cell lysate containing […] substrate was added to each well. After standing for 18 minutes in the dark, the signal of chemiluminescence was detected. The EC50 value was calculated by four-parameter fitting, with the corresponding signal value of the well with only tumor cells as the minimum killing value, and the corresponding value of the well without tumor cells as the maximum killing value. The killing data of MIAPaCa/FG2 cells are as follows: […]
With `C/C(=C\CCP(=O)(N[C@@H](C)C(=O)OC(C)C)Oc1ccccc1)CO` (stereo partly drawn) [Control compound 1, Isopropyl (((E)-5-hydroxy-4-methylpent-3-en-1-yl)(phenoxy)phosphoryl)-L-alaninate, reference compound], the EC50 is 0.53 nM.

The same experiment, now with this note: γδT cells co-cultured with MIAPaCa/FG2 cells, E:T=2:1, 20 hours, compound diluted 3-fold, chemiluminescence, read-out: killing data of MIAPaCa/FG2 cells (EC50).
In the case of `C/C(=C\CCP(=O)(N[C@@H](C)C(=O)OC(C)C)Oc1ccc(C[C@H](NCCCc2ccccc2)C(=O)O[C@@H]2CCOC2)cc1)CO` (stereo partly drawn) [Compound 8], the EC50 worked out at 0.052 nM. Consider `C/C(=C\CCP(=O)(N[C@@H](C)C(=O)OC(C)C)Oc1ccc(C[C@H](NCCCc2ccccc2)C(=O)O[C@H]2CCOC2)cc1)CO` (stereo partly drawn) [Compound 9], for which the EC50 stood at 0.012 nM. Same read-out and setting: then `C/C(=C\CCP(=O)(N[C@@H](C)C(=O)OC(C)C)Oc1ccc(C[C@H](NCCc2ccccc2)C(=O)O[C@H]2CCOC2)cc1)CO` (stereo partly drawn) [Compound 11, (S)-Tetrahydrofuran-3-yl (2S)-3-(4-((((E)-5-hydroxy-4-methylpent-3-en-1-yl)(((S)-1-isopropoxy-1-oxopropan-2-yl)amino)phosphor yl)oxy)phenyl)-2-(phenethylamino)propionate], with 41.7 nM. Take `C/C(=C\CCP(=O)(N[C@@H](C)C(=O)OCC(C)C)Oc1ccc(C[C@H](NCCCc2ccccc2)C(=O)O[C@H]2CCOC2)cc1)CO` (stereo partly drawn) [Compound 12, (S)-tetrahydrofuran-3-yl (2S)-3-(4-((((E)-5-hydroxy-4-methylpent-3-en-1-yl)(((S)-1-isobutoxy-1-oxopropan-2-yl)amino)phosphoryl)oxy)phenyl)-2-((3-phenylpropyl)amino)propionate]: the EC50 amounted to 0.011 nM. As to `CCC(CC)OC(=O)[C@H](C)NP(=O)(CC/C=C(\C)CO)Oc1ccc(C[C@H](NCCCc2ccccc2)C(=O)O[C@H]2CCOC2)cc1` (stereo partly drawn) [Compound 13, (S)-tetrahydrofuran-3-yl (2S)-3-(4-((((E)-5-hydroxy-4-methylpent-3-en-1-yl)(((S)-1-oxo-1-(pentan-3-yloxy)propan-2-yl)amino)phosphoryl)oxy)phenyl)-2-((3-phenylpropyl)amino)propionate], the EC50 came to 0.42 nM. Still for that read-out and setting: as for `C/C(=C\CC[P@@](=O)(N[C@@H](C)C(=O)NC(C)C)Oc1ccc(C[C@H](NCCCc2ccccc2)C(=O)O[C@H]2CCOC2)cc1)CO` [Compound 14], the figure is 0.016 nM. With `C/C(=C\CC[P@](=O)(N[C@@H](C)C(=O)NC(C)C)Oc1ccc(C[C@H](NCCCc2ccccc2)C(=O)O[C@H]2CCOC2)cc1)CO` [Compound 15], the EC50 came to 1.6 nM. For `C/C(=C\CCP(=O)(N[C@@H](C)C(=O)OCC(C)C)Oc1ccc(C[C@H](NCCCc2ccccc2)C(=O)NC(C)C)cc1)CO` (stereo partly drawn) [Compound 16, Isobutyl (((E)-5-hydroxy-4-methylpent-3-en-1-yl)(4-((S)-3-(isopropylamino)-3-oxo-2-((3-phenylpropyl)amino)propyl)phenoxy)phosphoryl)-L-alaninate], the EC50 amounted to 0.011 nM.
